Series [1] in a line: In-vitro inhibitory concentration for human tumor HCT116 cell-line was determined using MTT assay after 3 days of incubation. In kind it is functional, cell-based. As to conditions: HCT-116, 72 h.
Series [2] can be described thus: In-vitro inhibitory concentration for human tumor HELA cell-line was determined using MTT assay after 3 days of incubation. In kind it is functional, cell-based. As to conditions: 72 h.
The next series concerns HL-60. In words: In-vitro inhibitory concentration for human tumor HL60 cell-line was determined using […] assay after 3 days of incubation. To be noted: HL-60, 72 h. In kind it is functional, cell-based. A general note: In SRB staining, fixed cells bind dye roughly in proportion to their protein.
The test system of a further series is Bel-7402. Briefly: In-vitro inhibitory concentration for human tumor BEL-7402 cell-line was determined using MTT assay after 3 days of incubation. Type of series: functional, cell-based. To be noted: Bel-7402, 72 h. Background: Tetrazolium dyes change colour on reduction, which living cells bring about.
Series [3] is described as follows: Lethal toxicity in mouse with tumor sarcoma-180 after intraperitoneal (i.p.) injection at a dose of 0.5 mg/Kg of total 8 tested. As to conditions: in vivo, ip.
A short description of series [4]: Lethal toxicity in mouse with tumor sarcoma-180 after intraperitoneal (i.p.) injection at a dose of 1.0 mg/Kg of total 8 tested. To be noted: in vivo, ip.
Series [5] has as its system Mus musculus. In words: Percent body weight change in mouse with tumor sarcoma-180 after intraperitoneal (i.p.) injection at a dose of 1 mg/Kg. In kind it is functional.
Series [6] relates to Mus musculus. In words: Average tumor weight in mouse with tumor sarcoma-180 after intraperitoneal (i.p.) injection at a dose of 1 mg/Kg. In kind it is functional.
Series [7] deals with Mus musculus. In words: Average tumor weight in mouse with tumor sarcoma-180 after intraperitoneal (i.p.) injection at a dose of 0.5 mg/Kg. In kind it is functional.
Series [8] deals with Mus musculus. In words: Percent body weight change in mouse with tumor sarcoma-180 after intraperitoneal (i.p.) injection at a dose of 0.5 mg/Kg. Type of series: functional.
Series [9] deals with Mus musculus. In words: Percent tumor-weight inhibition in mouse with tumor sarcoma-180 after intraperitoneal (i.p.) injection at a dose of 1 mg/Kg. In kind it is functional.
The subject of series [10] is Mus musculus. Briefly: Percent tumor-weight inhibition in mouse with tumor sarcoma-180 after intraperitoneal (i.p.) injection at a dose of 0.5 mg/Kg. Type of series: functional.
A short description of series [11]: Lethal toxicity in mouse with tumor sarcoma-180 after intraperitoneal (i.p.) injection at a dose of 2.5 mg/Kg of total 8 tested. As to conditions: in vivo, ip.
Series [12] can be described thus: Lethal toxicity in mouse with tumor sarcoma-180 after intraperitoneal (i.p.) injection at a dose of 5.0 mg/Kg of total 8 tested. To be noted: in vivo, ip.
Series [13] relates to Mus musculus. Briefly: Percent body weight change in mouse with tumor sarcoma-180 after intraperitoneal (i.p.) injection at a dose of 5 mg/Kg. In kind it is functional.
Series [14] has as its system Mus musculus. Briefly: Average tumor weight in mouse with tumor sarcoma-180 after intraperitoneal (i.p.) injection at a dose of 5 mg/Kg. Type of series: functional.
For series [15], the system named is Mus musculus. Briefly: Average tumor weight in mouse with tumor sarcoma-180 after intraperitoneal (i.p.) injection at a dose of 2.5 mg/Kg. In kind it is functional.
Series [16] has as its system Mus musculus. In words: Percent tumor-weight inhibition in mouse with tumor sarcoma-180 after intraperitoneal (i.p.) injection at a dose of 5 mg/Kg. Type of series: functional.
The test system of series [17] is Mus musculus. Briefly: Percent tumor-weight inhibition in mouse with tumor sarcoma-180 after intraperitoneal (i.p.) injection at a dose of 2.5 mg/Kg. Type of series: functional.
The subject of series [18] is Mus musculus. In words: Percent body weight change in mouse with tumor sarcoma-180 after intraperitoneal (i.p.) injection at a dose of 2.5 mg/Kg. Type of series: functional.
Series [19] is described as follows: Lethal toxicity in mouse with tumor sarcoma-180 after intraperitoneal (i.p.) injection at a dose of 75 mg/Kg of total 10 tested. To be noted: in vivo, ip.
Series [20] has as its system Mus musculus. Briefly: Average tumor weight in mouse with tumor sarcoma-180 after intraperitoneal (i.p.) injection at a dose of 75 mg/Kg. In kind it is functional.
The subject of series [21] is Mus musculus. Briefly: Percent body weight change in mouse with tumor sarcoma-180 after intraperitoneal (i.p.) injection at a dose of 75 mg/Kg. In kind it is functional.
Series [22] deals with Mus musculus. In words: Percent tumor-weight inhibition in mouse with tumor sarcoma-180 after intraperitoneal (i.p.) injection at a dose of 75 mg/Kg. Type of series: functional.
Series [23] can be described thus: Lethal toxicity in mouse with tumor sarcoma-180 after intraperitoneal (i.p.) injection at a dose of 40 mg/Kg of total 8 tested. To be noted: in vivo, ip.
Series [24] relates to Mus musculus. In words: Average tumor weight in mouse with tumor sarcoma-180 after intraperitoneal (i.p.) injection at a dose of 40 mg/Kg. In kind it is functional.
Series [25] deals with Mus musculus. In words: Percent body weight change in mouse with tumor sarcoma-180 after intraperitoneal (i.p.) injection at a dose of 40 mg/Kg. In kind it is functional.
In series [26] the test system is Mus musculus. Briefly: Percent tumor-weight inhibition in mouse with tumor sarcoma-180 after intraperitoneal (i.p.) injection at a dose of 40 mg/Kg. Type of series: functional.

With `CCc1c2c(nc3ccc4c(c13)CC(CO)O4)-c1cc3c(c(=O)n1C2)COC(=O)[C@]3(O)CC` (some centres not stated), the IC50 (usually the concentration that gives 50% inhibition) in series [1] came to 3.8 nM; in series [2], 23 nM; in the series on HL-60, 7.1 nM; with Bel-7402, 7.8 nM.

As for `CC[C@@]1(O)C(=O)OCc2c1cc1n(c2=O)Cc2cc3c(ccc4occc43)nc2-1`, the “No. of mice dead” value in series [3] and in series [4] was 0 in each case. The IC50 in series [1] was determined as 1.6 nM; in series [2], 15 nM; in the series with HL-60 it was 3 nM; with Bel-7402, 1.6 nM. Moreover, the BWC with Mus musculus [5] is -34%; with Mus musculus [8], 26%. For the same compound, the TW with Mus musculus [6] came out at 0.03; in the series on Mus musculus [7], 0.23. The TWI with Mus musculus [9] is on record as 98%; in the series on Mus musculus [10], 85%.

Turning to `CCc1c2c(nc3ccc4c(c13)CC(C)O4)-c1cc3c(c(=O)n1C2)COC(=O)[C@]3(O)CC` (some centres not stated), the IC50 in series [1] is 2.6 nM; in series [2] it was 19 nM; in the series on HL-60 it was 4.9 nM; in the series with Bel-7402, 7.5 nM.

Regarding `CCc1c2c(nc3ccc4occc4c13)-c1cc3c(c(=O)n1C2)COC(=O)[C@]3(O)CC`, the IC50 in series [1] came out at 1.7 nM; in series [2], 2.3 nM; with HL-60, 0.28 nM; in the series with Bel-7402 it was 2.6 nM.

For `CC[C@@]1(O)C(=O)OCc2c1cc1n(c2=O)Cc2cc3c4c(ccc3nc2-1)OC(O)C4` (some centres not stated), the “No. of mice dead” value in series [11] and in [12] was 0 throughout. Further, the IC50 in [1] amounted to 3.2 nM; in the series with HL-60, 8.4 nM; in the series on Bel-7402, 2.6 nM. Further, the BWC was -31% with Mus musculus [13] and 5% with Mus musculus [18]. Also, the TW in the series with Mus musculus [14] is 0.05; in the series with Mus musculus [15], 0.45. The TWI with Mus musculus [16] came to 97%; in the series on Mus musculus [17], 70%.

`CCc1c2c(nc3ccc4c(c13)CC(O)O4)-c1cc3c(c(=O)n1C2)COC(=O)[C@]3(O)CC` (some centres not stated): the IC50 was 1.4 nM in series [1], 20 nM in series [2], 4.2 nM with HL-60 and 4.4 nM with Bel-7402.

As to `CC[C@@]1(O)C(=O)OCc2c1cc1n(c2=O)Cc2cc3c4c(ccc3nc2-1)OC(COC(C)=O)C4` (some centres not stated), the IC50 was 4.3 nM in [1], 11 nM in [2], 11 nM in the series with HL-60 and 15 nM with Bel-7402.

Regarding `CCc1c2c(nc3ccc4c(c13)CC(COC(C)=O)O4)-c1cc3c(c(=O)n1C2)COC(=O)[C@]3(O)CC` (some centres not stated), the IC50 in series [1] is 0.52 nM; in series [2], 14 nM; with HL-60 it was 9.1 nM; with Bel-7402, 11 nM.

As for `CC[C@@]1(O)C(=O)OCc2c1cc1n(c2=O)Cc2cc3c4c(ccc3nc2-1)OC(CO)C4` (some centres not stated), the IC50 is 2.6 nM in series [1], 25 nM in [2], 8.7 nM with HL-60 and 19 nM in the series with Bel-7402.

With `CC[C@@]1(O)C(=O)OCc2c1cc1n(c2=O)Cc2cc3c4c(ccc3nc2-1)OC(C)C4` (some centres not stated), the IC50 came out at 4.9 nM in series [1], 10 nM in series [2], 3.1 nM with HL-60 and 7.4 nM in the series with Bel-7402.

Take `CCc1c2c(nc3ccc(O)cc13)-c1cc3c(c(=O)n1C2)COC(=O)[C@]3(O)CC` [7-ETHYL-10-HYDROXYCAMPTOTHECIN]: the IC50 in series [1] worked out at 3.3 nM; in series [2] it was 22 nM; with HL-60, 19 nM; with Bel-7402, 13 nM.

With `O=c1[nH]cc(F)c(=O)[nH]1` [FLUOROURACIL], the “No. of mice dead” value in [19] turned out to be 0. The TW with Mus musculus [20] was 0.22. The BWC in the series on Mus musculus [21] is recorded as 31%. The TWI in the series on Mus musculus [22] was 86%.

Turning to `CCc1c2c(nc3ccc(OC(=O)N4CCC(N5CCCCC5)CC4)cc13)-c1cc3c(c(=O)n1C2)COC(=O)[C@]3(O)CC` [IRINOTECAN], the “No. of mice dead” value in [23] was 0. In addition, in the series with Mus musculus [24], the TW is 0.01. Besides, the BWC with Mus musculus [25] was -28%. Besides, the TWI in the series with Mus musculus [26] stood at 99.4%.

Values taken from ChEMBL document CHEMBL1144359, “Synthesis and antitumor activity of the hexacyclic camptothecin derivatives” (Bioorg Med Chem Lett, 2005).
